Where “and” joins values, the source holds several entries; their conditions need not be identical. Equal values may be shown once.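 These data come from cells grown in 96-well plates and exposed to compound for 48 hours at five concentrations. GI50: concentration for 50% inhibition of growth. TGI is the concentration that stops growth completely.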
How the values were obtained:
Assay in all cases: NCI-60 cell line screen, 48 h
A549 NSCLC = system: A549 NSCLC
EKVX NSCLC = system: EKVX NSCLC
HOP-92 NSCLC = system: HOP-92 NSCLC
HT29 colon = system: HT29 colon
OVCAR-5 ovarian = system: OVCAR-5 ovarian
OVCAR-8 ovarian = system: OVCAR-8 ovarian
SF-539 CNS = system: SF-539 CNS
TK-10 renal = system: TK-10 renal
DU-145 prostate = system: DU-145 prostate
BT-549 breast = system: BT-549 breast

O=C1C2C3CC(C4C5C=CC(C5)C34)C2C2C3CC(C12)C1C2C=CC(C2)C31 (stereo unspecified)
TGI (A549 NSCLC): > 100 µM
TGI (EKVX NSCLC): > 100 µM
TGI (HOP-92 NSCLC): > 100 µM
TGI (HT29 colon): > 100 µM
TGI (OVCAR-5 ovarian): > 100 µM
TGI (OVCAR-8 ovarian): > 100 µM
TGI (SF-539 CNS): > 100 µM
TGI (TK-10 renal): > 100 µM

COc1ccc(OC)c(/C=N/N=C(\N)NO)c1
TGI (A549 NSCLC): > 100 µM
TGI (EKVX NSCLC): > 100 µM
TGI (HOP-92 NSCLC): 83.6 µM
TGI (HT29 colon): > 100 µM
TGI (OVCAR-5 ovarian): > 100 µM
TGI (OVCAR-8 ovarian): > 100 µM
TGI (SF-539 CNS): > 100 µM
TGI (TK-10 renal): 56 µM

CC(C)COc1nc2c(c(=O)n(C)c(=O)n2C)n1C
GI50 (A549 NSCLC): > 100 µM
TGI (A549 NSCLC): > 100 µM
GI50 (DU-145 prostate): > 100000 nM
TGI (DU-145 prostate): > 100 µM
GI50 (EKVX NSCLC): > 100 µM
TGI (EKVX NSCLC): > 100 µM
GI50 (HOP-92 NSCLC): > 100 µM
TGI (HOP-92 NSCLC): > 100 µM
GI50 (OVCAR-5 ovarian): > 100 µM
TGI (OVCAR-5 ovarian): > 100 µM
GI50 (OVCAR-8 ovarian): > 100 µM
TGI (OVCAR-8 ovarian): > 100 µM
GI50 (SF-539 CNS): > 100 µM
TGI (SF-539 CNS): > 100 µM

Cc1cccc(C)c1N1C(=O)C(=O)C(c2nc3ccccc3s2)/C(=N\N)C1=O (stereo unspecified)
TGI (A549 NSCLC): > 100 µM
TGI (EKVX NSCLC): > 100 µM
TGI (HOP-92 NSCLC): > 100 µM
TGI (HT29 colon): > 100 µM
TGI (OVCAR-5 ovarian): > 100 µM
TGI (OVCAR-8 ovarian): > 100 µM
TGI (SF-539 CNS): > 100 µM
TGI (TK-10 renal): > 100 µM

CNS(=O)(=O)NNS(=O)(=O)c1ccc(OC)cc1
TGI (A549 NSCLC): > 100 µM
TGI (EKVX NSCLC): > 100 µM
TGI (HT29 colon): > 100 µM
TGI (OVCAR-8 ovarian): > 100 µM
TGI (SF-539 CNS): > 100 µM

COc1cc(/C=N/N=C(\N)NO)c(Cl)cc1O
TGI (A549 NSCLC): > 100 µM
TGI (EKVX NSCLC): > 100 µM
TGI (HOP-92 NSCLC): 73.2 µM
TGI (HT29 colon): > 100 µM
TGI (OVCAR-5 ovarian): > 100 µM
TGI (OVCAR-8 ovarian): > 100 µM
TGI (SF-539 CNS): > 100 µM

O=C(O)C1[O][Sb][O]C(C(=O)O)C1O (stereo unspecified)
GI50 (A549 NSCLC): > 100 µM
TGI (A549 NSCLC): > 100 µM
GI50 (BT-549 breast): > 100000 nM
TGI (BT-549 breast): > 100 µM
GI50 (DU-145 prostate): > 100000 nM
TGI (DU-145 prostate): > 100 µM
GI50 (EKVX NSCLC): > 100 µM
TGI (EKVX NSCLC): > 100 µM
GI50 (HOP-92 NSCLC): > 100 µM
TGI (HOP-92 NSCLC): > 100 µM
GI50 (HT29 colon): > 100 µM
TGI (HT29 colon): > 100 µM
GI50 (OVCAR-5 ovarian): > 100 µM
TGI (OVCAR-5 ovarian): > 100 µM
GI50 (OVCAR-8 ovarian): > 100 µM
TGI (OVCAR-8 ovarian): > 100 µM
GI50 (TK-10 renal): > 100 µM
TGI (TK-10 renal): > 100 µM

CC(=O)[CH-]C(=O)c1ccccc1.CC(=O)[CH-]C(=O)c1ccccc1.CC(=O)[CH-]C(=O)c1ccccc1.[Nd+3].[OH3+]
GI50 (A549 NSCLC): > 100 µM
TGI (A549 NSCLC): > 100 µM
GI50 (EKVX NSCLC): 60.9 µM
TGI (EKVX NSCLC): > 100 µM
GI50 (HOP-92 NSCLC): 29.5 µM
TGI (HOP-92 NSCLC): 77.4 µM
GI50 (HT29 colon): 30 µM
TGI (HT29 colon): > 100 µM
GI50 (OVCAR-5 ovarian): 93.1 µM
TGI (OVCAR-5 ovarian): > 100 µM
GI50 (OVCAR-8 ovarian): 27.2 µM
TGI (OVCAR-8 ovarian): > 100 µM
GI50 (SF-539 CNS): 52.9 µM
TGI (SF-539 CNS): > 100 µM
GI50 (TK-10 renal): > 100 µM
TGI (TK-10 renal): > 100 µM

CCCCCCCCCC[C@H](O)[C@H](O)CC[C@@H](O)[C@H]1CC[C@@H]([C@H]2CC[C@H](CCCCCCC[C@@H](O)CC3=C[C@H](C)OC3=O)O2)O1
GI50 (A549 NSCLC): 20.7 µM
TGI (A549 NSCLC): > 100 µM
GI50 (EKVX NSCLC): 18.5 µM
TGI (HT29 colon): 5.64 µM
GI50 (OVCAR-5 ovarian): 47.7 µM
TGI (OVCAR-5 ovarian): > 100 µM
GI50 (SF-539 CNS): 15.5 µM
TGI (SF-539 CNS): 40.9 µM
GI50 (TK-10 renal): 36.3 µM
TGI (TK-10 renal): > 100 µM

NC1=NN(c2ccccc2)C(=O)C1C(=O)C(=O)Nc1ccc(Cl)c(Cl)c1 (stereo unspecified)
TGI (A549 NSCLC): > 100 µM
TGI (EKVX NSCLC): > 100 µM
TGI (HOP-92 NSCLC): > 100 µM
TGI (HT29 colon): > 100 µM
TGI (OVCAR-5 ovarian): > 100 µM
TGI (OVCAR-8 ovarian): > 100 µM
TGI (SF-539 CNS): > 100 µM
TGI (TK-10 renal): > 100 µM

CN(/N=C\c1ccnc2ccccc12)c1ccc([N+](=O)[O-])cc1
TGI (A549 NSCLC): > 100 µM
TGI (EKVX NSCLC): > 100 µM
TGI (HOP-92 NSCLC): > 100 µM
TGI (HT29 colon): > 100 µM
TGI (OVCAR-5 ovarian): > 100 µM
TGI (OVCAR-8 ovarian): > 100 µM
TGI (SF-539 CNS): > 100 µM
TGI (TK-10 renal): > 100 µM

CC(C)CCCCCCCCCCCCC(=O)NCC(=O)NC1C(O)C(O)C(Nc2ncnc3nc[nH]c23)OC1C(O)CO (stereo unspecified)
TGI (A549 NSCLC): 0.00787 µM and 0.0537 µM and 0.0327 µM
GI50 (BT-549 breast): < 0.01 nM
GI50 (DU-145 prostate): < 0.01 nM
TGI (EKVX NSCLC): 0.0228 µM and 0.0578 µM and 0.0199 µM
GI50 (HOP-92 NSCLC): < 1e-05 µM
TGI (HT29 colon): 0.0109 µM and 0.0666 µM and 0.0148 µM
GI50 (OVCAR-5 ovarian): 0.005 µM
TGI (OVCAR-5 ovarian): 0.0171 µM and 0.0695 µM
GI50 (TK-10 renal): < 1e-05 µM

COc1c(-c2ccccc2)nc2ccc(Oc3ccccc3)nn12
TGI (A549 NSCLC): > 100 µM
TGI (EKVX NSCLC): > 100 µM
TGI (HOP-92 NSCLC): > 100 µM
TGI (HT29 colon): > 100 µM
TGI (OVCAR-5 ovarian): > 100 µM
TGI (OVCAR-8 ovarian): > 100 µM
TGI (SF-539 CNS): > 100 µM
TGI (TK-10 renal): > 100 µM

O=C(Nc1ccc(Cl)c(Cl)c1)C(=O)C(C(=O)c1ccccc1-c1ccccc1)C1OC(=O)c2ccccc21 (stereo unspecified)
TGI (A549 NSCLC): 63.2 µM
TGI (EKVX NSCLC): 43.4 µM
TGI (HOP-92 NSCLC): 30.2 µM
TGI (HT29 colon): > 100 µM
TGI (OVCAR-5 ovarian): 33.9 µM
TGI (OVCAR-8 ovarian): 84.5 µM
TGI (SF-539 CNS): 27.9 µM
TGI (TK-10 renal): 43.7 µM

COC(=O)[C@@H]1Cc2c([nH]c3ccccc23)[C@H](c2ccccc2)N1
TGI (A549 NSCLC): > 100 µM
TGI (EKVX NSCLC): > 100 µM
TGI (HOP-92 NSCLC): > 100 µM
TGI (HT29 colon): > 100 µM
TGI (OVCAR-5 ovarian): > 100 µM
TGI (OVCAR-8 ovarian): > 100 µM
TGI (SF-539 CNS): 67.3 µM
TGI (TK-10 renal): > 100 µM

Nc1c(Cl)ncnc1NCCCCCCCCCCCCNc1ncnc(Cl)c1N
TGI (EKVX NSCLC): 98.1 µM
TGI (HOP-92 NSCLC): 4.3 µM
TGI (HT29 colon): 49.8 µM
TGI (OVCAR-5 ovarian): > 100 µM
TGI (OVCAR-8 ovarian): > 100 µM
TGI (SF-539 CNS): 30.3 µM
TGI (TK-10 renal): > 100 µM

COC1(OC)C2(Cl)C(Cl)=C(Cl)C1(Cl)C1C2C2CC1(C(=O)O)c1ccccc12 (stereo unspecified)
TGI (A549 NSCLC): > 100 µM
TGI (HOP-92 NSCLC): 93.4 µM
TGI (HT29 colon): 76.3 µM
TGI (OVCAR-8 ovarian): 88.3 µM
TGI (TK-10 renal): 70 µM

CC(=O)c1cc(C(=O)c2ccc3c(c2)Sc2ccccc2N3)n2ccccc12
GI50 (A549 NSCLC): 0.00613 µM and 0.00332 µM
TGI (A549 NSCLC): > 33.2 µM
GI50 (BT-549 breast): 7.73 nM and 26.2 nM
TGI (BT-549 breast): > 33.2 µM
GI50 (DU-145 prostate): 5.14 nM and 3.32 nM
TGI (DU-145 prostate): > 33.2 µM
GI50 (EKVX NSCLC): 0.0291 µM and 0.00498 µM
TGI (EKVX NSCLC): > 33.2 µM
TGI (HOP-92 NSCLC): 14.5 µM
GI50 (HT29 colon): 0.0035 µM and 0.00332 µM
GI50 (OVCAR-5 ovarian): 0.0376 µM and 0.199 µM
TGI (OVCAR-5 ovarian): > 33.2 µM
GI50 (OVCAR-8 ovarian): 0.00752 µM and 0.00332 µM
TGI (OVCAR-8 ovarian): > 33.2 µM
GI50 (SF-539 CNS): 0.00278 µM and 0.00332 µM
TGI (SF-539 CNS): 0.00949 µM and 0.0103 µM

CC(=O)C1=C(O)C=C2Oc3c(C(=O)/C=C/c4cc(Cl)cc(Cl)c4)c(O)c(C)c(O)c3[C@]2(C)C1=O
GI50 (A549 NSCLC): 0.566 µM
TGI (A549 NSCLC): 2.98 µM
GI50 (BT-549 breast): 395 nM
TGI (BT-549 breast): 0.961 µM
GI50 (DU-145 prostate): 622 nM
TGI (DU-145 prostate): 5.58 µM
GI50 (EKVX NSCLC): 0.444 µM
TGI (EKVX NSCLC): 2.27 µM
GI50 (HT29 colon): 0.47 µM
TGI (HT29 colon): 1.56 µM
GI50 (OVCAR-5 ovarian): 0.72 µM
TGI (OVCAR-5 ovarian): 8.57 µM
GI50 (OVCAR-8 ovarian): 0.496 µM
TGI (OVCAR-8 ovarian): 2.26 µM
GI50 (SF-539 CNS): 0.552 µM
TGI (SF-539 CNS): 2.26 µM
GI50 (TK-10 renal): 0.446 µM
TGI (TK-10 renal): 1.68 µM

COC1OC2COC(C)(C)OC2C(OC(C)=O)C1NC(=O)N(CCCl)N=O (stereo unspecified)
TGI (A549 NSCLC): > 100 µM
TGI (EKVX NSCLC): > 100 µM
TGI (HT29 colon): > 100 µM
TGI (OVCAR-5 ovarian): > 100 µM
TGI (OVCAR-8 ovarian): > 100 µM
TGI (SF-539 CNS): 93.1 µM
TGI (TK-10 renal): > 100 µM
